Results: patent US7811352B2, “Fertilizer compositions and methods of using” (priority 2005, dated 2010)

How the values were obtained:
[1] = tested on: Bermuda grass; test: Phytotoxicity rating, Bermuda grass fairway (Example 10); format: in vivo; settings: scale 0-5, 5=worst
Source text: (§1) In this Example, the effect of a fertilizer comprising lysine on warm season turfgrass growth was examined. The effects of lysine (HCl) and LIQUID LYSINE on a common type of golf course fairway quality turfgrass (Bermuda grass) were compared with those of urea and Milorganite.
(§2) Fifteen fertilizer treatments comprising three concentrations of each fertilizer composition (Milorganite (N—P—K, 6-2-0), urea (N—P—K, 46-0-0), LIQUID LYSINE (N—P—K, 10-2-1), and both granular and aqueous lysine (HCl) (N—P—K, 15-2-1)) were prepared and applied to 4 replications of Bermuda grass. The aqueous lysine (HCl) was dissolved in water prior to application. Each fertilizer treatment was applied in concentrations of 0.5 lb N/1000 ft^2/month, 1.0 lb N/1000 ft^2/month and 3.0 lb N/1000 ft^2/month. The urea, LIQUID LYSINE and aqueous lysine (HCl) were applied as foliar liquids, while Milorganite and granular lysine (HCl) were applied as granular fertilizers Plot size was 1 m×2 m set up as a randomized complete block. Plots were mowed at 0.5 inches before fertilizer application. Irrigation (0.15 inch) was applied following application. Plots were rated for turfgrass quality and color (scale of 1-10 where 10=dark green turf, 1=dead/brown turf, and 6=minimally acceptable turf) and phytotoxicity (scale of 0-5, where 5=worst, and 2=minimally objectionable) throughout the study period. Quality, color, and phytotoxicity were measured on 2 days before application (day −2) and day 2, day 5, day 15 and day 21 after application. All data was subject to statistical analysis and significant means were determined. Average turfgrass quality ratings for the treatments are presented in Table 9 and the quality results for application rates of 1.0 lb N/1000 ft^2/month are graphically presented in FIG. 4.

[2] = tested on: Bermuda grass; test: Turfgrass quality and color ratings, Bermuda grass fairway (Example 10); format: in vivo; settings: scale 1-10
Source text: as §1, §2

[3] = Monthly Rate 0.5 lbs N/1000 ft^2, Day 2
[4] = Monthly Rate 0.5 lbs N/1000 ft^2, Day 5
[5] = Monthly Rate 0.5 lbs N/1000 ft^2, Day 15
[6] = Monthly Rate 0.5 lbs N/1000 ft^2, Day 21
[7] = Monthly Rate 0.5 lbs N/1000 ft^2, Day −2 (before application)
[8] = Monthly Rate 1.0 lbs N/1000 ft^2, Day 2
[9] = Monthly Rate 1.0 lbs N/1000 ft^2, Day 5
[10] = Monthly Rate 1.0 lbs N/1000 ft^2, Day 15
[11] = Monthly Rate 1.0 lbs N/1000 ft^2, Day 21
[12] = Monthly Rate 1.0 lbs N/1000 ft^2, Day −2 (before application)
[13] = Monthly Rate 3.0 lbs N/1000 ft^2, Day 2, (HCl)
[14] = Monthly Rate 3.0 lbs N/1000 ft^2, Day 5
[15] = Monthly Rate 3.0 lbs N/1000 ft^2, Day 15
[16] = Monthly Rate 3.0 lbs N/1000 ft^2, Day 21
[17] = Monthly Rate 3.0 lbs N/1000 ft^2, Day −2 (before application)
[18] = Monthly Rate 0.5 lbs N/1000 ft^2, Day 2, (HCl)
[19] = Monthly Rate 0.5 lbs N/1000 ft^2, Day 5, (HCl)
[20] = Monthly Rate 0.5 lbs N/1000 ft^2, Day 15, (HCl)
[21] = Monthly Rate 0.5 lbs N/1000 ft^2, Day 21, (HCl)
[22] = Monthly Rate 0.5 lbs N/1000 ft^2, Day −2 (before application), (HCl)
[23] = Monthly Rate 1.0 lbs N/1000 ft^2, Day 2, (HCl)
[24] = Monthly Rate 1.0 lbs N/1000 ft^2, Day 5, (HCl)
[25] = Monthly Rate 1.0 lbs N/1000 ft^2, Day 15, (HCl)
[26] = Monthly Rate 1.0 lbs N/1000 ft^2, Day 21, (HCl)
[27] = Monthly Rate 1.0 lbs N/1000 ft^2, Day −2 (before application), (HCl)
[28] = Monthly Rate 3.0 lbs N/1000 ft^2, Day 2
[29] = Monthly Rate 3.0 lbs N/1000 ft^2, Day 5, (HCl)
[30] = Monthly Rate 3.0 lbs N/1000 ft^2, Day 15, (HCl)
[31] = Monthly Rate 3.0 lbs N/1000 ft^2, Day 21, (HCl)
[32] = Monthly Rate 3.0 lbs N/1000 ft^2, Day −2 (before application), (HCl)

Q: `Cl.NCCCC[C@H](N)C(=O)O` [Lys (HCl) 15% N (gran), lysine (HCl)] was tested. Which “Phytotoxicity - Bermuda Grass” value [1, 3] did it give?
A: 0.0b

Q: And the “Phytotoxicity - Bermuda Grass” value [1, 4]?
A: 0

Q: What about the “Phytotoxicity - Bermuda Grass” value [1, 5] of the same compound?
A: 0

Q: And the “Phytotoxicity - Bermuda Grass” value [1, 6]?
A: 0

Q: And the “Phytotoxicity - Bermuda Grass” value [1, 7]?
A: 0

Q: What about the “Phytotoxicity - Bermuda Grass” value [1, 8] of the same compound?
A: 0.0b

Q: And the “Phytotoxicity - Bermuda Grass” value [1, 9]?
A: 0

Q: And the “Phytotoxicity - Bermuda Grass” value [1, 10]?
A: 0

Q: What about the “Phytotoxicity - Bermuda Grass” value [1, 11] of the same compound?
A: 0

Q: And the “Phytotoxicity - Bermuda Grass” value [1, 12]?
A: 0

Q: What about the “Phytotoxicity - Bermuda Grass” value [1, 13] of the same compound?
A: 0.5a

Q: And the “Phytotoxicity - Bermuda Grass” value [1, 14]?
A: 0

Q: And the “Phytotoxicity - Bermuda Grass” value [1, 15]?
A: 0

Q: And the “Phytotoxicity - Bermuda Grass” value [1, 16]?
A: 0

Q: What about the “Phytotoxicity - Bermuda Grass” value [1, 17] of the same compound?
A: 0

Q: What about the “Quality Ratings - Bermuda Grass” value [2, 3] of the same compound?
A: 7.3b

Q: And the “Color Ratings - Bermuda Grass” value [2, 18]?
A: 7.5

Q: And the “Color Ratings - Bermuda Grass” value [2, 19]?
A: 8.0def

Q: What about the “Quality Ratings - Bermuda Grass” value [2, 19] of the same compound?
A: 7.6bcd

Q: What about the “Color Ratings - Bermuda Grass” value [2, 20] of the same compound?
A: 7.1e

Q: And the “Quality Ratings - Bermuda Grass” value [2, 20]?
A: 7.4e

Q: And the “Color Ratings - Bermuda Grass” value [2, 21]?
A: 8.3b

Q: And the “Quality Ratings - Bermuda Grass” value [2, 21]?
A: 7.9def

Q: What about the “Color Ratings - Bermuda Grass” value [2, 7] of the same compound?
A: 6.5

Q: What about the “Quality Ratings - Bermuda Grass” value [2, 22] of the same compound?
A: 6.5

Q: What about the “Color Ratings - Bermuda Grass” value [2, 23] of the same compound?
A: 7.9

Q: What about the “Quality Ratings - Bermuda Grass” value [2, 23] of the same compound?
A: 7.6ab

Q: And the “Color Ratings - Bermuda Grass” value [2, 24]?
A: 8.3bcd

Q: And the “Quality Ratings - Bermuda Grass” value [2, 24]?
A: 7.9abc

Q: What about the “Color Ratings - Bermuda Grass” value [2, 10] of the same compound?
A: 7.8cd

Q: And the “Quality Ratings - Bermuda Grass” value [2, 25]?
A: 8.1cd

Q: And the “Color Ratings - Bermuda Grass” value [2, 26]?
A: 8.3b

Q: And the “Quality Ratings - Bermuda Grass” value [2, 26]?
A: 8.1bcd

Q: And the “Color Ratings - Bermuda Grass” value [2, 27]?
A: 6.4

Q: What about the “Quality Ratings - Bermuda Grass” value [2, 27] of the same compound?
A: 6.3

Q: And the “Color Ratings - Bermuda Grass” value [2, 28]?
A: 7.3

Q: And the “Quality Ratings - Bermuda Grass” value [2, 28]?
A: 7.4b

Q: What about the “Color Ratings - Bermuda Grass” value [2, 14] of the same compound?
A: 9.0a

Q: What about the “Quality Ratings - Bermuda Grass” value [2, 29] of the same compound?
A: 8.5a

Q: And the “Color Ratings - Bermuda Grass” value [2, 30]?
A: 8.6a

Q: And the “Quality Ratings - Bermuda Grass” value [2, 30]?
A: 9.4a

Q: And the “Color Ratings - Bermuda Grass” value [2, 31]?
A: 8.9a

Q: And the “Quality Ratings - Bermuda Grass” value [2, 31]?
A: 8.6a

Q: What about the “Color Ratings - Bermuda Grass” value [2, 32] of the same compound?
A: 6.4

Q: What about the “Quality Ratings - Bermuda Grass” value [2, 32] of the same compound?
A: 6.1

Q: Which results are given for `Cl.NCCCC[C@H](N)C(=O)O` [Lys (HCl) 15% N (aq), lysine (HCl)]?
A: Phytotoxicity - Bermuda Grass [1, 3]: 0.0b; Phytotoxicity - Bermuda Grass [1, 4]: 0; Phytotoxicity - Bermuda Grass [1, 5]: 0; Phytotoxicity - Bermuda Grass [1, 6]: 0; Phytotoxicity - Bermuda Grass [1, 7]: 0; Phytotoxicity - Bermuda Grass [1, 8]: 0.0b; Phytotoxicity - Bermuda Grass [1, 9]: 0; Phytotoxicity - Bermuda Grass [1, 10]: 0; Phytotoxicity - Bermuda Grass [1, 11]: 0; Phytotoxicity - Bermuda Grass [1, 12]: 0; Phytotoxicity - Bermuda Grass [1, 13]: 0.3ab; Phytotoxicity - Bermuda Grass [1, 14]: 0; Phytotoxicity - Bermuda Grass [1, 15]: 0; Phytotoxicity - Bermuda Grass [1, 16]: 0; Phytotoxicity - Bermuda Grass [1, 17]: 0; Quality Ratings - Bermuda Grass [2, 3]: 7.3b; Color Ratings - Bermuda Grass [2, 18]: 7.3; Color Ratings - Bermuda Grass [2, 19]: 7.8 g·days; Quality Ratings - Bermuda Grass [2, 19]: 7.1 days; Color Ratings - Bermuda Grass [2, 20]: 7.6cde; Quality Ratings - Bermuda Grass [2, 20]: 7.8de; Color Ratings - Bermuda Grass [2, 21]: 8.0bc; Quality Ratings - Bermuda Grass [2, 21]: 8.0cde; Color Ratings - Bermuda Grass [2, 7]: 6.5; Quality Ratings - Bermuda Grass [2, 22]: 6.3; Color Ratings - Bermuda Grass [2, 23]: 7.3; Quality Ratings - Bermuda Grass [2, 23]: 7.0b; Color Ratings - Bermuda Grass [2, 24]: 8.1cde; Quality Ratings - Bermuda Grass [2, 24]: 7.8bcd; Color Ratings - Bermuda Grass [2, 10]: 7.8cd; Quality Ratings - Bermuda Grass [2, 25]: 7.9de; Color Ratings - Bermuda Grass [2, 26]: 8.0bc; Quality Ratings - Bermuda Grass [2, 26]: 8.0cde; Color Ratings - Bermuda Grass [2, 27]: 6.5; Quality Ratings - Bermuda Grass [2, 27]: 6.4; Color Ratings - Bermuda Grass [2, 28]: 7.3; Quality Ratings - Bermuda Grass [2, 28]: 7.4b; Color Ratings - Bermuda Grass [2, 14]: 9.0a; Quality Ratings - Bermuda Grass [2, 29]: 8.3ab; Color Ratings - Bermuda Grass [2, 30]: 8.3ab; Quality Ratings - Bermuda Grass [2, 30]: 8.8b; Color Ratings - Bermuda Grass [2, 31]: 8.8a; Quality Ratings - Bermuda Grass [2, 31]: 8.5ab; Color Ratings - Bermuda Grass [2, 32]: 6.1; Quality Ratings - Bermuda Grass [2, 32]: 6.0
